{"source": "patent US20200129459A1", "about": "“THE NEW USE OF 2-[(3Z)-6-FLUORO-2-METHYL-3-[(4-[…]) METHYLIDENE]INDEN-1 -YL] ACETIC ACID” (WYZSZA SZKOLA MEDYCZNA W BIALYMSTOKU, priority 2017, published 2020)", "assay_type_in_all_cases": "in vivo, Wistar rats", "key": {"sorbitol": {"tested_on": "sorbitol", "test": "Sorbitol in subcutaneous muscle subjacent to the wound", "conditions": "diabetic rats, wet muscle weight", "experimental": "Each muscle sample was cut into small pieces and ground in the presence of liquid nitrogen until it was powdered. The weight of the powered muscle tissue was determined, after which 1 mL of ice-cold 0.5 M perchloric acid was added and the samples were sonicated. The sonicated tissue was centrifuged for 5 min to remove precipitate. The resulting supernatant was neutralized by adding a solution 0.5 M potassium carbonate. The solution was then vortexed for 45 seconds, then centrifuged for 5 min at 5000 g and precipitate was discarded. The samples were stored in deep freezer at −86° C. until sorbitol determination.\nThe neutralized muscle extracts were vortexed and 10 μL aliquots along with sorbitol standards were added to a 96 well plate. Sorbitol dehydrogenase reaction was started by adding to each well 10 μL of a reaction mix containing 20 μg/μL sorbitol dehydrogenase, 2 mM NAD in 50 mM glycine-NaOH buffer pH 9.7. Following incubation with sorbitol dehydrogenase for 30 min at room temperature, 100 μL of a solution containing 65 μg/mL diaphorase, 10 uM FMN, 20 μM resazurin in 50 mM glycine-NaOH, pH 9.7 was added and the fluorescence (ex/em at 544/590 nm) was determined on a fluorescent plate reader for a period of an hour. Sorbitol content was expressed in nmol/mg of wet muscle weight."}, "aldose reductase": {"target": "T1, aldose reductase (Rattus norvegicus, UniProt P07943)", "T1 construct": "Tissue samples were homogenized in 135 mM Na, K-phosphate buffer (pH 7.0) containing 5 mM 2-mercaptoethanol; from tissue; host or cells: rat subcutaneous muscle subjacent to the wound (supernatant of the homogenate)", "test": "Rat subcutaneous muscle aldose reductase activity", "conditions": "subcutaneous muscle subjacent wound, diabetic rats", "experimental": "Tissue samples were homogenized in 135 mM Na, K-phosphate buffer (pH 7.0) containing 5 mM 2-mercaptoethanol. The homogenate was centrifuged at 12,000 g for 30 min and the supernatant was used in the following steps. Aldose reductase activity was determined according to the classic method with glyceraldehyde as substrate. The incubation mixture contained 135 mM Na, K-phosphate buffer (pH 7.0), 100 mM lithium sulfate, 0.03 mM NADPH, 0.04 mM D,L-glyceraldehyde (monomerized at 80 deg C. for 10 min and cooled to RT) as a substrate and the sample solution (50 μL). The reaction was initiated by adding NADPH at 37 C and stopped by adding 0.5 M HCl, followed by the addition of 6 M NaOH containing 10 mM imidazole. The solution was heated at 60 C for 10 min to convert NADP to a fluorescent product. The fluorescence was measured using a spectrofluorometer with ex/em 360/460 nm. The assay was performed in duplicates. Protein content was determined using BCA assay."}, "[1]": {"tested_on": "rats with alloxan-induced diabetes", "test": "Histology of healed wound skin", "conditions": "diabetic rats, skin excised next day after full epithelization; hematoxylin-eosin and van Gison staining", "experimental": "Tissue specimens next day after full epithelization were excised in depth to include underlying connective tissues above the external fascia of the dorsal muscles. The excised skin was fixed in paraformaldehyde (4% in PBS, 0.01 M, pH 7.4), dehydrated in graded alcohol solutions, embedded in paraffin blocks and sectioned at 5 μm-thick serial sections using microtome.\nPreparations from the collected skin fragments were prepared in a standard manner and stained with the classic method using hematoxylin and eosin, and by the van Gison method using picric acid and acid fuchsine. The preparations were analyzed using a Leica DM 1000 light microscope equipped with a Leica DFC300 FX digital camera."}, "[2]": {"tested_on": "rats with alloxan-induced diabetes", "test": "Healing of excision wounds in rats with alloxan-induced diabetes, solutions applied on the wound", "conditions": "diabetic rats, 200 μl/daily on wound surface until full healing", "experimental": "Use of 2-[(3Z)-6-fluoro-2-methyl-3-[(4-methylsulfinylphenyl)methylidene]inden-1-yl] acetic acid (sulindac) for the treatment of difficult healing wounds in rats with alloxan-induced diabetes.\n63 adult male Wistar rats were used in the experiment. All animals were kept under observation for two weeks before the onset of the experiment to exclude any intercurrent infection. Animals were housed in standard plastic cages by 5 animals per cage. Rats were kept in air-conditioned room at 22±2° C., humidity of 60-70% and a natural light (12/12 in the day/night cycle). All rats were fed ad libitum with standard laboratory rats chow.\nDiabetes mellitus was induced with alloxan, a highly toxic compound that destroyed the β-cells of the pancreas Langerhans islets, by single intraperitoneally injection at dose 170 mg per kg of body weight in 0.1 M citrate-phosphate buffer, pH 4.0 after 24-hours fasting. After alloxan administration drinking water was replaced by 2 per cent sucrose solution in tap water on 10 days period.\nRats were identified as diabetic on the basis of blood glucose levels (higher than 16 mmol/l after 12 h starvation at 10 days post-alloxan treatment; total 31 rats were diabetic). […]\nEvery day wounds were photographed by digital camera. Wound macroscopic parameters were quantified using the ImageJ software (NIH, USA)."}, "[3]": {"conditions": "mediana (25th; 75th percentile)"}}}
{"compound": "CC1=C(CC(=O)O)c2cc(F)ccc2/C1=C\\c1ccc([S+](C)[O-])cc1", "note": "(stereo not shown) [Sul, 2-[(3Z)-6-fluoro-2-methyl-3-[(4-methylsulfinylphenyl)methylidene]inden-1-yl] acetic acid]", "values": [{"measurement": "Sorbitol levels", "setting": "sorbitol; M±m (SEM)", "result": "0.057 ± 0.005", "unit": "nmol/mg"}, {"measurement": "Sorbitol levels", "setting": "sorbitol; [3]", "result": "0.053(0.048; 0.075) ^ΔΔΔ nmol/mg"}, {"measurement": "AR", "setting": "aldose reductase; M±m (SEM)", "result": "0.64 ± 0.04 nmole NADPH/min/mg protein"}, {"measurement": "AR", "setting": "aldose reductase; [3]", "result": "0.677(0.63; 0.69) ^ΔΔΔ nmole NADPH/min/mg protein"}, {"measurement": "Histology of the area of damage", "setting": "[1]", "result": "the skin was rebuilt in the form of a scar tissue made of modified connective tissue"}, {"measurement": "Full healing", "setting": "[2]; M±m (SEM)", "result": "23.7 ± 0.65", "unit": "days"}, {"measurement": "Full healing", "setting": "[2]; [3]", "result": "24.0(22.0; 25.0) ^Δ days"}]}
